Structure (SMILES) | melting point [°C]
COc1cc(N2CCN(c3c(C)c(C)c4c(c3C)CC(C)(C)O4)CC2)ccc1Cl | 168 to 171
NC(=O)O[C@@](c1cc(F)cc(Cl)c1)(c1cc2cn[nH]c2cc1F)[C@@H]1CCCCN1 | 220
C=CCN(CC=C)Cc1csc(-c2ncn3c2CN(C)C(=O)c2cc(F)ccc2-3)n1 | 125 to 127
NCCSc1ncccc1C(N)=O | 131 to 133
CCCc1c(OCCCOc2c(C(C)=O)ccc(OCCCCCC(=O)O)c2CCC)ccc(C(C)=O)c1O | 105 to 108
Cc1oc(-c2ccccc2)nc1CCCCCC(CO)CO | 71 to 74
CC(=O)Oc1c(C)c(C)c2c(c1C)CCC(C)(C=O)O2 (stereo unspecified) | 88 to 90
ON=C1CCC(C2CCCC2)=C1c1ccc(F)cc1 | 204 to 205
Cc1ccsc1CN(O)C(N)=O | 110
CC(C)(C)OC(=O)N1CCC(C(=O)N2CCC(c3[nH]nc4c3C(=O)c3c(NC(=O)NN5CCOCC5)cccc3-4)CC2)CC1 | 220 to 222
C[C@@H]1CCC[C@H](C)N1CCNC(=O)CN1CCCC1=O | 93 to 94.5
CS(=O)(=O)CC1COCc2nc3c(N)nc4ccccc4c3n21 (stereo unspecified) | 158 to 161
O=c1nc(NCCCCc2ncccc2Cl)[nH]cc1C(O)c1ccncc1 (stereo unspecified) | 90
CN(C)C=NC(=S)Nc1ccccc1 | 139 to 143
COc1ccc(C2(CCN3CCC(O)(c4nc5ccccc5n4Cc4ccc(F)cc4)CC3)CCN(C(=O)c3ccccc3)C2)cc1OC (stereo unspecified) | 111 to 114
CCOC(=O)C=Cc1ccc(OCCCc2ccccc2)c([N+](=O)[O-])c1 | 67 to 69
CCOC(=O)C(=CNc1ccccc1)C(=O)c1cc(F)c(Cl)c([N+](=O)[O-])c1Cl | 133 to 135
CC1=NC(NC(=O)Nc2cccc(C)c2)C(=O)N(CC(=O)N(CC(C)C)CC(C)C)c2c(C)cccc21 (stereo unspecified) | 227 to 228
Cc1cc2c(c(C)c1NC(=O)CC(C)(C)C)C(=O)C(C)(C)O2 | 181 to 182

Structure (SMILES) | melting point [°C]
Clc1nc(OCc2ccccc2)c2[nH]cnc2n1 | 195 to 196
Nc1nc(Nc2cccc(C(F)(F)F)c2)nc(OCC(F)(F)F)n1 | 133 to 135
CS(=O)(=O)c1ccc(N2CCC3(CC2)OCCO3)cc1 | 192 to 194
CCOCc1nc2c(N)nc3cccnc3c2n1CC1(O)CC1 | 178 to 179
CCOc1ccc(C2SC(=N)NC2=N)cc1OCC (stereo unspecified) | 185 to 190
Cc1csc2nc3c(c(NC(=O)CN4C(=O)NC(=O)[C@@H]4C)c12)CCCC3 | 273 to 277
Nc1c(CCO)cccc1C(O)c1ccccc1 (stereo unspecified) | 101
O=C1c2cccc(O)c2N=CC2CCCN12 (stereo unspecified) | 146 to 148
Cc1cc(=O)oc2cc(S)ccc12 | 136
CN1Cc2c(C#N)ncn2-c2ccc(F)cc2C1=O | 236 to 237
CNC(Cc1ccc2c(c1)Nc1nccnc1S2)=NC#N | 233 to 234
CC(=O)N[C@H]1C(O)O[C@H](CO)[C@@H](F)[C@@H]1O (stereo partly specified) | 180
CN1CCN(c2ccccc2C2=NC(C)(C)CO2)C(c2cccs2)C1 (stereo unspecified) | 114 to 115
O=C1NCC(C(F)(F)C(F)(F)C(F)(F)F)C(=O)N1 (stereo unspecified) | 223
CC(C)(O)C1CCN(Cc2ccccc2)CC1 | 66
CCCc1cc(=O)oc2cc(OC(=O)C(C)(C)C)c3c(c12)OC(C)(C)C=C3 | 65 to 68
CC(c1oc2ccc(F)cc2c(=O)c1-c1ccccc1)n1cnc2c(N)ncnc21 (stereo unspecified) | 264 to 269
CCS(=O)(=O)CC(=O)c1cc(C(C)(C)C)c(O)c(C(C)(C)C)c1 | 120
CCOC(=O)c1nc(Br)n2c1c(=O)n(C)c1cc(C(F)(F)F)ccc12 | 205 to 207

Structure (SMILES) | melting point [°C]
Cc1ccc(S(=O)(=O)C2=CC3CCC2N3C(=O)OC(C)(C)C)cc1 (stereo unspecified) | 144 to 147
CCN(CC)CCCC(=O)c1ccc2c(c1)Cc1cc(C(=O)CCCN(CC)CC)ccc1O2 | 63 to 65
Cc1cnc(Cl)c(C(=O)N(CCO)Cc2cc(C(F)(F)F)cc(C(F)(F)F)c2)c1-c1ccccc1 | 146 to 148
CCc1cc2c(s1)-n1nc(C(=O)O)nc1CN=C2c1ccccc1Cl | 134 to 136
CCCN(CCC)Cc1cnc(-c2ncn3c2[C@@H]2CCN2C(=O)c2ccccc2-3)o1 | 132 to 134
Oc1c(Cc2c[nH]cn2)cccc1C1=NCCN1 | 261
CC(C)(C)c1cc(CCC(=O)NN)cc(C(C)(C)C)c1O | 153 to 154
CCN1CCCC1CNC(=O)c1cc(NS(C)(=O)=O)c(C)cc1OC (stereo unspecified) | 132 to 133
O=C(CNC(=S)c1cccnc1)NC1CC1 | 152 to 153
COc1cc(OC)nc(NS(=O)(=O)C(C#N)C(C)C)n1 (stereo unspecified) | 91 to 93
C(=Cc1ccccc1)COc1ccc(C2OCCO2)cc1 | 102
Cc1cc2c(c3ccc(=O)[nH]c13)OC(CNC(=O)CN(C)C)C2 (stereo unspecified) | > 250
CCOP(=O)(OCC)C1CCc2c([N+](=O)[O-])c(C(F)(F)F)cc3[nH]c(=O)c(=O)n1c23 (stereo unspecified) | 254
CCC(CO)Nc1nc(NCc2cccc(OC)c2O)c2ncn(C(C)C)c2n1 (racemic) | 120 to 122
CCn1ccc2c(ccc3[nH]cc(CCN)c32)c1=O | 224 to 227
Cc1nc2c(n1C1CC1)CCCC2=O | 132
CC(=O)OCC1OC(n2c(=O)sc3c(Cl)nc(N)nc32)C(OC(C)=O)C1OC(C)=O (stereo unspecified) | 101 to 103
N#Cc1cnc2cnc(F)cc2c1Cl | 150 to 155

Continued, values first:

melting point [°C] | Structure (SMILES)
166 to 168 | CNc1nc2ccc(Cl)cc2c2nc(-c3ccco3)nn12
125 to 127 | CC(C)(C)c1nnc2ccc(OCCCN3CCC(OC(c4ccccc4)c4ccccc4)CC3)nn12
133 to 134 | COc1ccc2c(c1)C(Cl)c1ccccc1CO2 (stereo unspecified)
208 to 210 | O=C(O)Cc1ccc(-c2ccc(O)cc2)c(F)c1
99 to 100 | COC(=O)c1ccc2c(c1)CCN2Cc1cccc([N+](=O)[O-])c1
154 to 156 | CCCCc1nc(C(C)(C)O)c(C(=O)OCOC(=O)OC(C)C)n1Cc1ccc(-c2ccccc2C(=O)O)cc1
74 to 75 | CCOC(=O)c1cc2cc(F)cnc2n1Cc1ccccc1
75 to 95 | O=C(NC[C@H]1CN(c2ccc3c(c2)CCCc2cnn(C(=O)c4ccccc4)c2-3)C(=O)O1)c1ccccc1
108 | CCOC(=O)N1CCN(c2ccc(-n3cnn(C(C)(C)C(O)c4ccc(Cl)cc4)c3=O)cc2)CC1 (stereo unspecified)
122 to 124 | CNC1(c2cccc(NC(=O)c3cc(OC)c(OC)c(OC)c3)c2)NC=Nc2cc(OC)c(OC)cc21 (stereo unspecified)
148 | COc1ccc2c3ccc(OC)cc3n(-c3ccccc3OC)c2c1
239 to 241 | CS(=O)(=O)c1ccc(-c2cnn(CC(=O)c3ccc(C(=O)O)cc3)c(=O)c2-c2ccc(F)cc2)cc1
256 to 258 | Cc1c(-c2ccc3c(c2)C2(CCCCC2)C(=O)N3)sc2ccc(Cl)cc12
210 | Cn1cccc1-c1ccc2c(c1)C1(CCCCC1)C(=O)N2
260 | CC(C)N1C(=O)CCCc2cc(Nc3ncc(Cl)c(NC4C5C=CC(C5)C4C(N)=O)n3)ccc21 (stereo unspecified)
115 | O=c1oc2c(c(OCCN3CCOCC3)c1-c1ccccc1)CCCC2
169 to 171 | CCC1c2ccc(C#N)n2-c2ccc(F)cc2N1S(=O)(=O)c1ccc(O)cc1 (stereo unspecified)
319 to 321 | COc1cc(-c2ccc(C(=N)NO)cc2)cc(-c2nc3cc(C(=N)NO)ccc3[nH]2)c1O
103 | CCOC(=O)c1c(Cl)c2cc(C)ccc2n(Cc2ccccc2)c1=O
143 to 145 | COc1ccc(C=C2c3ccccc3C(=NOCC(=O)N3CCC(CO[N+](=O)[O-])CC3)c3ccccc32)cc1O

melting point [°C] | Structure (SMILES)
248 to 249 | COc1cc(C=CC=C2SC(=O)NC2=O)ccc1OCc1csc(-c2ccccc2)n1
164 to 165 | CS(=O)(=O)c1ccc(Oc2ccc(C(=O)c3ccccc3)cc2)cc1
172 to 173 | COc1c(OCc2ccccc2)c(OC)c2c(=O)cc(-c3ccc(OCc4ccccc4)cc3)oc2c1OC
270 to 271 | O=C(c1ccn2c1CSC2c1cccnc1)c1c[nH]c2cc(-c3cccnc3)ccc12 (stereo unspecified)
108 to 110 | COC(=O)CSCc1cccc(-c2nc(=O)c3ccccc3s2)n1
255 | CC(=O)Nc1ccc(Oc2c(NCc3ccccc3)cc(C(=O)O)cc2S(N)(=O)=O)cc1
197 to 199 | COc1ccc(-c2ccc(C(=O)Nc3ccc4nc(CN5CCCC5)ccc4c3)cc2)cc1
> 300 | CN(C)c1ccc(N=Nc2ccc(S(=O)(=O)NCc3ccc4c(c3)-c3n[nH]c(=O)c5cccc(c35)O4)cc2)cc1
230 to 235 | O=C1NCCN(C(c2ccccc2)(c2ccccc2)c2ccccc2)C1=O
228 | CC(C)(C)NS(=O)(=O)c1cccc(NC(=O)c2cnn3c(C(F)F)cc(-c4ccc(C(F)(F)F)cc4)nc23)c1
145 to 146 | CC(C)n1nc(-c2c(-c3ccccc3)nn3ccc(OCc4cccnc4)cc23)ccc1=O
97 to 99 | O=C(OCc1ccccc1)N1CCC(c2nc(CO)c(-c3ccc(Cl)cc3)o2)CC1
110 to 112 | COc1ccc(Cn2c(Cl)nc3c(Cl)ncnc32)cc1
263 to 264 | O=C(O)c1cc(C(=O)O)c(C(O)=NCc2ccc(C(F)(F)F)cc2)cc1C(O)=NCc1ccc(C(F)(F)F)cc1
170 to 171 | Cn1c(N2CCOCC2)nc(C(=O)NCc2ccc(F)c(Cl)c2)c(O)c1=O
114 to 116 | Cc1ccc(S(=O)(=O)CCCC(=O)c2ccc(F)cc2)cc1
117 to 122 | Cc1c2ccccc2c(-c2cc(Br)c(OC(Cc3ccccc3)C(=O)O)c(Br)c2)c2c1sc1ccccc12 (stereo unspecified)
49 to 51 | COC(=O)c1cc(C(C)C)sc1NC(=O)Nc1ccc(C)cc1
139 to 142 | CC(C)Oc1ccc(-c2nn([C@@H](C)c3oc4ccc(F)cc4c(=O)c3-c3cccc(F)c3)c3ncnc(N)c23)cc1F
206 to 208 | Cc1nc(Sc2cc(C(=O)O)c3ccccc3n2)sc1CC(=O)O
